{"source": "paper PMC5999115", "about": "“Anti-tumor activity of phenoxybenzamine and its inhibition of histone deacetylases” (PLoS ONE, 2018)", "key": {"LXFS DMS 273": {"system": "LXFS DMS 273", "assay": "Oncotest CellTiter-Blue cell viability assay, 72 hours", "type": "cell-based, human", "conditions": "LXFS DMS273; 10% FCS; study P495A", "procedure": "(§1) Further studies with varying drug concentrations on selected human cell lines, in most cases those studied in the NCI60 screen, were conducted by Oncotest GmbH laboratories, Freiburg, Germany; Oncotest is a division of Charles River Laboratories. The dissolution procedure for PBZ and the cell culture […] was 72 hours; anti-tumor activity was determined with the CellTiter-Blue® Cell Viability Assay, Promega, Mannheim, Germany. The 50% Inhibitory (IC50) concentrations were determined. The results are the average of duplicate assays. Paclitaxel was included as a reference compound to confirm the integrity of the assays. See S1 Appendix for further details.\n(§2) “Cell lines were routinely passaged once or twice weekly and maintained in culture for up to 20 passages. Cells were grown at 37°C in a humidified atmosphere with 5% CO2 in RPMI 1640 medium (25 mM HEPES, with L-glutamine, #FG1385, Biochrom, Berlin, Germany) supplemented with 10% (v/v) fetal calf serum (Sigma, Taufkirchen, Germany) and 0.1 mg/mL gentamicin (Life Technologies, Karlsruhe, Germany).”"}, "LYXF DLBC SU-DHL-1": {"system": "LYXF DLBC SU-DHL-1", "assay": "Oncotest CellTiter-Blue cell viability assay, 72 hours", "type": "cell-based, human", "procedure": "as §1, §2"}, "CNXF U-251": {"system": "CNXF U-251", "assay": "Oncotest CellTiter-Blue cell viability assay, 72 hours", "type": "cell-based, human", "procedure": "as §1, §2"}, "MAXF T47D": {"system": "MAXF T47D", "assay": "Oncotest CellTiter-Blue cell viability assay, 72 hours", "type": "cell-based, human", "procedure": "as §1, §2"}, "[1]": {"system": "implanted tumors (malignant glioma)", "design": "method as in PMID 26409450", "conditions": "direct injection into implanted tumors; cited from earlier work"}, "[2]": {"conditions": "LYXF SU-DHL-1, 1% FCS, study P495C"}, "[3]": {"conditions": "LYXF SU-DHL-1, 10% FCS, study P495B"}, "[4]": {"conditions": "CNXF U-251, 1% FCS, study P495C"}, "[5]": {"conditions": "CNXF U-251, 10% FCS, study P495A"}}}
{"smiles": "CC(COc1ccccc1)N(CCCl)Cc1ccccc1", "note": "(stereo not shown) [PBZ, phenoxybenzamine]", "values": [{"measurement": "Test/Control (%) at Drug Concentration [uM] 3,2E-02", "setting": "LXFS DMS 273", "result": 74, "unit": "%"}, {"measurement": "Test/Control (%) at Drug Concentration [uM] 3,2E-03", "setting": "LXFS DMS 273", "result": 83, "unit": "%"}, {"measurement": "IC50", "setting": "LYXF DLBC SU-DHL-1; Homo sapiens, LYXFDLBC SU-DHL-1 Lymphoma, 1% FCS", "result": 29.5, "unit": "µM"}, {"measurement": "Test/Control (%) at Drug Concentration [uM] 1,0E+00", "setting": "LYXF DLBC SU-DHL-1; [2]", "result": 97, "unit": "%"}, {"measurement": "Test/Control (%) at Drug Concentration [uM] 1,0E+01", "setting": "LYXF DLBC SU-DHL-1; [2]", "result": 91, "unit": "%"}, {"measurement": "Test/Control (%) at Drug Concentration [uM] 1,0E+02", "setting": "LYXF DLBC SU-DHL-1; [2]", "result": 7, "unit": "%"}, {"measurement": "Test/Control (%) at Drug Concentration [uM] 3,2E+00", "setting": "LYXF DLBC SU-DHL-1; [2]", "result": 96, "unit": "%"}, {"measurement": "Test/Control (%) at Drug Concentration [uM] 3,2E+01", "setting": "LYXF DLBC SU-DHL-1; [2]", "result": 45, "unit": "%"}, {"measurement": "Test/Control (%) at Drug Concentration [uM] 1,0E+00", "setting": "LYXF DLBC SU-DHL-1; [3]", "result": 98, "unit": "%"}, {"measurement": "Test/Control (%) at Drug Concentration [uM] 1,0E+01", "setting": "LYXF DLBC SU-DHL-1; [3]", "result": 100, "unit": "%"}, {"measurement": "Test/Control (%) at Drug Concentration [uM] 1,0E+02", "setting": "LYXF DLBC SU-DHL-1; [3]", "result": 0, "unit": "%"}, {"measurement": "Test/Control (%) at Drug Concentration [uM] 1,0E-01", "setting": "LYXF DLBC SU-DHL-1; [3]", "result": 100, "unit": "%"}, {"measurement": "Test/Control (%) at Drug Concentration [uM] 1,0E-02", "setting": "LYXF DLBC SU-DHL-1; [3]", "result": 100, "unit": "%"}, {"measurement": "Test/Control (%) at Drug Concentration [uM] 1,0E-03", "setting": "LYXF DLBC SU-DHL-1; [3]", "result": 100, "unit": "%"}, {"measurement": "Test/Control (%) at Drug Concentration [uM] 3,2E+00", "setting": "LYXF DLBC SU-DHL-1; [3]", "result": 100, "unit": "%"}, {"measurement": "Test/Control (%) at Drug Concentration [uM] 3,2E+01", "setting": "LYXF DLBC SU-DHL-1; [3]", "result": 94, "unit": "%"}, {"measurement": "Test/Control (%) at Drug Concentration [uM] 1,0E+00", "setting": "CNXF U-251; [4]", "result": 98, "unit": "%"}, {"measurement": "Test/Control (%) at Drug Concentration [uM] 1,0E+01", "setting": "CNXF U-251; [4]", "result": 102, "unit": "%"}, {"measurement": "Test/Control (%) at Drug Concentration [uM] 1,0E+02", "setting": "CNXF U-251; [4]", "result": 36, "unit": "%"}, {"measurement": "Test/Control (%) at Drug Concentration [uM] 3,2E+00", "setting": "CNXF U-251; [4]", "result": 102, "unit": "%"}, {"measurement": "Test/Control (%) at Drug Concentration [uM] 3,2E+01", "setting": "CNXF U-251; [4]", "result": 98, "unit": "%"}, {"measurement": "Test/Control (%) at Drug Concentration [uM] 1,0E+00", "setting": "CNXF U-251; [5]", "result": 92, "unit": "%"}, {"measurement": "Test/Control (%) at Drug Concentration [uM] 1,0E+01", "setting": "CNXF U-251; [5]", "result": 103, "unit": "%"}, {"measurement": "Test/Control (%) at Drug Concentration [uM] 1,0E+02", "setting": "CNXF U-251; [5]", "result": 98, "unit": "%"}, {"measurement": "Test/Control (%) at Drug Concentration [uM] 1,0E-01", "setting": "CNXF U-251; [5]", "result": 90, "unit": "%"}, {"measurement": "Test/Control (%) at Drug Concentration [uM] 1,0E-02", "setting": "CNXF U-251; [5]", "result": 90, "unit": "%"}, {"measurement": "Test/Control (%) at Drug Concentration [uM] 3,2E+00", "setting": "CNXF U-251; [5]", "result": 94, "unit": "%"}, {"measurement": "Test/Control (%) at Drug Concentration [uM] 3,2E+01", "setting": "CNXF U-251; [5]", "result": 118, "unit": "%"}, {"measurement": "Test/Control (%) at Drug Concentration [uM] 3,2E-01", "setting": "CNXF U-251; [5]", "result": 93, "unit": "%"}, {"measurement": "Test/Control (%) at Drug Concentration [uM] 3,2E-02", "setting": "CNXF U-251; [5]", "result": 93, "unit": "%"}, {"measurement": "Test/Control (%) at Drug Concentration [uM] 3,2E-03", "setting": "CNXF U-251; [5]", "result": 85, "unit": "%"}, {"measurement": "IC50", "setting": "CNXF U-251; Homo sapiens, CNXF U-251 CNS, 1% FCS", "result": 83.1, "unit": "µM"}, {"measurement": "Percent cell growth in Oncotest screen with 10% FCS (72 hr incubation)", "setting": "MAXF T47D; 10 μM phenoxybenzamine, T47D", "result": 97, "unit": "%"}, {"measurement": "IC50", "setting": "MAXF T47D; Homo sapiens, MAXF T47D Mammary, 1% FCS", "result": 83.4, "unit": "µM"}, {"measurement": "Test/Control (%) at Drug Concentration [uM] 1,0E+00", "setting": "MAXF T47D; MAX T47D, 1% FCS, study P495C", "result": 98, "unit": "%"}, {"measurement": "Test/Control (%) at Drug Concentration [uM] 1,0E+01", "setting": "MAXF T47D; MAX T47D, 1% FCS, study P495C", "result": 96, "unit": "%"}, {"measurement": "Test/Control (%) at Drug Concentration [uM] 1,0E+02", "setting": "MAXF T47D; MAX T47D, 1% FCS, study P495C", "result": 37, "unit": "%"}, {"measurement": "Test/Control (%) at Drug Concentration [uM] 3,2E+00", "setting": "MAXF T47D; MAX T47D, 1% FCS, study P495C", "result": 99, "unit": "%"}, {"measurement": "Test/Control (%) at Drug Concentration [uM] 3,2E+01", "setting": "MAXF T47D; MAX T47D, 1% FCS, study P495C", "result": 92, "unit": "%"}, {"measurement": "Test/Control (%) at Drug Concentration [uM] 1,0E+00", "setting": "MAXF T47D; MAX T47D, 10% FCS, study P495A", "result": 101, "unit": "%"}, {"measurement": "Test/Control (%) at Drug Concentration [uM] 1,0E+01", "setting": "MAXF T47D; MAX T47D, 10% FCS, study P495A", "result": 97, "unit": "%"}, {"measurement": "Test/Control (%) at Drug Concentration [uM] 1,0E+02", "setting": "MAXF T47D; MAX T47D, 10% FCS, study P495A", "result": 74, "unit": "%"}, {"measurement": "Test/Control (%) at Drug Concentration [uM] 1,0E-01", "setting": "MAXF T47D; MAX T47D, 10% FCS, study P495A", "result": 97, "unit": "%"}, {"measurement": "Test/Control (%) at Drug Concentration [uM] 1,0E-02", "setting": "MAXF T47D; MAX T47D, 10% FCS, study P495A", "result": 92, "unit": "%"}, {"measurement": "Test/Control (%) at Drug Concentration [uM] 3,2E+00", "setting": "MAXF T47D; MAX T47D, 10% FCS, study P495A", "result": 102, "unit": "%"}, {"measurement": "Test/Control (%) at Drug Concentration [uM] 3,2E+01", "setting": "MAXF T47D; MAX T47D, 10% FCS, study P495A", "result": 95, "unit": "%"}, {"measurement": "Test/Control (%) at Drug Concentration [uM] 3,2E-01", "setting": "MAXF T47D; MAX T47D, 10% FCS, study P495A", "result": 97, "unit": "%"}, {"measurement": "Test/Control (%) at Drug Concentration [uM] 3,2E-02", "setting": "MAXF T47D; MAX T47D, 10% FCS, study P495A", "result": 92, "unit": "%"}, {"measurement": "Test/Control (%) at Drug Concentration [uM] 3,2E-03", "setting": "MAXF T47D; MAX T47D, 10% FCS, study P495A", "result": 97, "unit": "%"}, {"measurement": "Test/Control (%) at Drug Concentration [uM] 1,0E+00", "setting": "MAXF T47D; MAX T47D, 10% FCS, study P495B", "result": 80, "unit": "%"}, {"measurement": "Test/Control (%) at Drug Concentration [uM] 1,0E+01", "setting": "MAXF T47D; MAX T47D, 10% FCS, study P495B", "result": 79, "unit": "%"}, {"measurement": "Test/Control (%) at Drug Concentration [uM] 1,0E+02", "setting": "MAXF T47D; MAX T47D, 10% FCS, study P495B", "result": 57, "unit": "%"}, {"measurement": "Test/Control (%) at Drug Concentration [uM] 1,0E-01", "setting": "MAXF T47D; MAX T47D, 10% FCS, study P495B", "result": 92, "unit": "%"}, {"measurement": "Test/Control (%) at Drug Concentration [uM] 1,0E-02", "setting": "MAXF T47D; MAX T47D, 10% FCS, study P495B", "result": 93, "unit": "%"}, {"measurement": "Test/Control (%) at Drug Concentration [uM] 1,0E-03", "setting": "MAXF T47D; MAX T47D, 10% FCS, study P495B", "result": 94, "unit": "%"}, {"measurement": "Test/Control (%) at Drug Concentration [uM] 3,2E+00", "setting": "MAXF T47D; MAX T47D, 10% FCS, study P495B", "result": 79, "unit": "%"}, {"measurement": "Test/Control (%) at Drug Concentration [uM] 3,2E+01", "setting": "MAXF T47D; MAX T47D, 10% FCS, study P495B", "result": 84, "unit": "%"}, {"measurement": "expansion of tumor volume in vivo", "setting": "[1]", "result": "marked reduction in expansion of tumor volume"}]}
